{"source": "patent US9675591B2", "about": "“Methods for treating seizure disorders and pain” (THE REGENTS OF THE UNIVERSITY OF CALIFORNIA, priority 2013, dated 2017)", "key": {"MES-induced seizures": {"system": "MES-induced seizures", "experiment": "Maximal electroshock (MES) seizure test, mice (ASP, methylcellulose suspension)", "format": "in vivo", "procedure": "SKA-19 was tested under the auspices of the National Institutes of Health's Anticonvulsant Screening Program (ASP). Experiments were performed in male albino CF (Carworth Farms) No. 1 mice or Sprague-Dawley rats according to the established protocols of the ASP (White et al., 2002). SKA-19 was suspended in 0.5% methylcellulose and administered in a volume that permits accuracy of dosage without excessively contributing to total body fluid (0.01 ml/g body weight for mice and 0.04 ml/10 g body weight for rats).\nAnimals received an electrical stimulus of 0.2 s duration (50 mA in mice and 150 mA in rat at 60 Hz) delivered via corneal electrodes primed with an electrolyte solution containing 0.5% tetracaine. Animals were restrained by hand and released immediately after stimulation to permit observation of the seizure throughout its entire course. In the initial screens to identify anticonvulsant activity mice were tested at 30 minutes and 4 hours following doses of 3, 10, 30, 100 and 300 mg/kg of SKA-19 and rats tested at time intervals between 0.25 and 4 hours following a standard oral dose of 30 mg/kg. In the subsequent, more quantitative tests at least four doses of SKA-19 (n=8 per dose) were tested at the previously determined time of peak effect (TPE). Abolition of hindlimb tonic extension indicates the test compound's ability to inhibit MES-induced seizure spread. Tonic extension is considered abolished if the hind limbs are not fully extended at 180° with the body."}, "[1]": {"system": "6-Hz psychomotor seizures", "experiment": "6-Hz psychomotor seizure test (ASP)", "format": "in vivo, mice", "settings": "for ED50: Mus musculus, ip, mice", "procedure": "Seizures characterized by a minimal clonic phase followed by stereotyped automatistic behaviors (jaw chomping and whisker movement) were induced in mice by a low frequency (6 Hz), long-duration (3 s) stimulus. These seizures resemble automatistic behavior in patients with complex partial seizures. At varying times (0.25, 0.5, 1, 2, and 4 h) after drug treatment, individual mice (four at each time point) were challenged with sufficient current (32 or 44 mA at 6 Hz for 3 s) delivered through corneal electrodes to elicit a psychomotor seizure. Animals not displaying this behavior are considered protected."}, "[2]": {"experiment": "Plasma protein binding by ultrafiltration", "format": "in vitro ADME", "settings": "rat plasma", "procedure": "For intravenous application, SKA-19 was dissolved at 5 mg/mL in a mixture of 10% CremophorEL (Sigma-Aldrich, St. Louis, Mo., USA) and 90% phosphate-buffered saline and then injected at 10 mg/kg into the tail vein of Sprague-Dawley rats. At various time points after the injection, ˜100 to 200 μL of blood was collected from a tail nick into EDTA blood sample collection tubes. Plasma was separated by centrifugation and stored at −80° C. pending analysis. For intraperitoneal application SKA-19 was dissolved in Miglyol 812 neutral oil (caprylic/capric triglyceride; Trade name Neobee M5, Spectrum Chemicals, Gardena, Calif., USA) at 2 mg/mL and injected intraperitoneally at 10 and 30 mg/kg. After determining that SKA-19 plasma concentrations peaked 2 h after i.p. application, a group of 3 rats was subjected to cardiac puncture under deep isoflurane anesthesia and then sacrificed before removing brain, heart, liver, spleen and fat. Tissue samples were homogenized in 1 ml of H2O with a Brinkman Kinematica PT 1600E homogenizer and the protein precipitated with 1 ml of acetonitrile. The samples were then centrifuged at 3000 rpm and supernatants concentrated to 1 ml. Plasma and homogenized tissue samples were purified using C18 solid phase extraction cartridges. Eluted fractions corresponding to SKA-19 were dried under nitrogen and reconstituted in acetonitrile. […] Using electrospray ionization MS and selective reaction monitoring (SRM) (capillary temperature 350° C., capillary voltage 4000 V, collision energy −26 eV, positive ion mode), SKA-19 was quantified by its base peak of 182.9 m/z (C7H7N2S2^•+ fragment) and its concentration was calculated with a 9-point calibration curve from 50 nmol/L to 10 μmol/L. The percentage of plasma protein binding for SKA-19 was determined by ultrafiltration. […] The centrifugate (=free SKA-19) was directly analyzed for SKA-19 by UPLC-MS. […]"}, "formalin-induced pain": {"system": "formalin-induced pain", "experiment": "Formalin pain assay", "format": "in vivo, mice", "settings": "5 mg/kg", "procedure": "SKA-19 was administered at a dose of 5 mg/kg to CF-1 male mice. At the previously determined time of peak anticonvulsant effect 0.5% formalin was injected sub-dermally into the plantar surface of the right hind foot. For each animal the amount of time (s) spent licking the affected hind paw in a two minute period was recorded at 5 minute intervals and continued for 45 minutes through both the acute and inflammatory phase."}, "[3]": {"settings": "ASP anticonvulsant testing, suspension in 0.5% methylcellulose"}}, "data": [{"smiles": "Nc1nc2ccc(SC(F)(F)F)cc2s1", "note": "[SKA-19, 6-((trifluoromethyl)thio)benzo[d]thiazol-2-amine]", "values": [{"measurement": "duration of activity", "setting": "MES-induced seizures; [3]", "result": 4, "unit": "h"}, {"measurement": "time of peak activity / maximal effect", "setting": "MES-induced seizures; [3]", "result": "1 to 2", "unit": "h"}, {"measurement": "ED50", "setting": "MES-induced seizures; Mus musculus, ip, mice, i.p., methylcellulose suspension, time of peak effect (SKA-19: 2 h), read-out: ED50, seizure protection in the MES test", "result": 4.8, "unit": "mg/kg"}, {"measurement": "protection in the MES model, initial screen", "setting": "MES-induced seizures; mice, i.p., 3 mg/kg", "result": "partial protection"}, {"measurement": "protection in the MES model, initial screen", "setting": "MES-induced seizures; mice, i.p., 10, 30 and 100 mg/kg", "result": "fully protected"}, {"measurement": "protective index PI (TD50/ED50)", "setting": "MES-induced seizures; mice, i.p., suspension", "result": 6.2}, {"measurement": "protection in 6-Hz test, initial screen", "setting": "[1]; 10 mg/kg i.p., all other tested time points", "result": "partial protection"}, {"measurement": "protection in 6-Hz test, initial screen", "setting": "[1]; 2 hours after i.p. 10 mg/kg", "result": "full protection (4 out of 4 animals)"}, {"measurement": "ED50", "setting": "[1]; 2 h, 32 mA", "result": 12.2, "unit": "mg/kg"}, {"measurement": "ED50", "setting": "[1]; current intensity 44 mA", "result": 28.1, "unit": "mg/kg"}, {"measurement": "fraction unbound", "setting": "[2]", "result": "0.11 to 0.18"}, {"measurement": "fraction unbound at 15 min", "setting": "[2]", "result": 0.11}, {"measurement": "unbound (free) fraction", "setting": "[2]", "result": "9.0±0.4", "unit": "%"}, {"measurement": "reduction of paw licking (area under curve), Phase II", "setting": "formalin-induced pain; 2 hours prior to formalin", "result": 31.3, "unit": "%"}, {"measurement": "reduction of total paw licking (area under curve), Phase I", "setting": "formalin-induced pain; 2 hours prior to formalin", "result": 54.5, "unit": "%"}, {"measurement": "time spent licking the affected hindpaw", "setting": "formalin-induced pain; 2 h prior to formalin", "result": "significantly decreased"}]}]}
